Experimental data published in paper PMC6792352, “Limited Chemical Structural Diversity Found to Modulate Thyroid Hormone Receptor in the Tox21 Chemical Library” (Environmental Health Perspectives, 2019).
Where a name gives a salt, the structure may show the parent alone.

Experiment: in vitro
Conditions: rat, gh3-tre-luc cells

Row | SMILES | CC50 at 24 h (AC50 (uM) modified / 1000) [µM] | other results
1 | O=c1oc2ccccc2c(O)c1C1CCCc2ccccc21 (stereo not shown) [Coumatetralyl] | > 90 | –
2 | C1CCOC1 [Tetrahydrofuran] | > 100 | –
3 | CCN(CC)C(=O)Nc1ccc(OCC(O)CNC(C)(C)C)c(C(C)=O)c1 (stereo not shown) [Celiprolol hydrochloride] | > 50 | –
4 | OC(c1ccc(Cl)cc1)(c1ccc(Cl)cc1)c1cccnc1 [Parinol] | 64.3 | –
5 | N=C(N)S(=O)O [Amino(imino)methanesulfinic acid] | > 90 | –
6 | CCn1cc(C(=O)O)c(=O)c2cc(F)c(N3CCNCC3)nc21 [Enoxacin] | > 20 | –
7 | CC1(C)OC[C@@H](COC(=O)CCc2ccc(OC[C@@H](O)CNCCNC(=O)N3CCOCC3)cc2)O1 [Landiolol hydrochloride] | > 50 | –
8 | CCCCCCC1(C)CCC(=O)O1 (stereo not shown) [Dihydrojasmone lactone] | > 90 | –
9 | C=CC(C)CCCC(C)(C)O (stereo not shown) [1,1,5-Trimethyl-6-heptenol] | > 90 | –
10 | CCN(CC)CCNC(=O)c1ccc(NS(C)(=O)=O)cc1 [Sematilide monohydrochloride] | > 50 | –
11 | COc1ccccc1OCC(O)COC(N)=O (stereo not shown) [Methocarbamol] | > 20 | –
12 | C=CC(C)(CCC=C(C)C)OC(=O)/C=C/c1ccccc1 (stereo not shown) [Linalyl cinnamate] | > 90 | –
13 | C=C[C@H]1C[N@@]2CC[C@H]1C[C@H]2[C@H](O)c1ccnc2ccc(OC)cc12 [Quinine hemisulfate salt monohydrate] | > 50 | –
14 | O=C[C@H](O)[C@H]1OC(=O)[C@@H](O)[C@H]1O [D-Glucuronolactone] | > 90 | –
15 | CC(C)(c1ccccc1)c1cc(-n2nc3ccccc3n2)c(O)c(C(C)(C)c2ccccc2)c1 [2-(2H-Benzotriazol-2-yl)-4,6-bis(1-methyl-1-phenylethyl)phenol] | > 50 | –
16 | Oc1cc(O)cc(O)c1 [1,3,5-Trihydroxybenzene dihydrate] | > 50 | –
17 | CCCC(=O)OC/C=C(\C)CCC=C(C)C [Geranyl butyrate] | > 90 | –
18 | Oc1ccc(-c2ccccc2)cc1Cl [2-Chloro-4-phenylphenol] | 81 | –
19 | CCCCCCCCN(C)CCCCCCCC [N-Methyldioctylamine] | > 90 | –
20 | C[C@@H]1O[C@@H](OC[C@H]2O[C@@H](Oc3c(-c4ccc(OCCO)c(OCCO)c4)oc4cc(OCCO)cc(O)c4c3=O)[C@H](O)[C@@H](O)[C@@H]2O)[C@H](O)[C@H](O)[C@H]1O [Troxerutin] | > 50 | –
21 | CCCCCCCCCCCCCCCC(=O)OC[C@@H](COP(=O)([O-])OCC[N+](C)(C)C)OC(=O)CCCCCCCCCCCCCCC | > 50 | –
22 | CC(=O)OC(C)(C)Cc1ccccc1 [Dimethylbenzylcarbinyl acetate] | > 90 | –
23 | CC(C)n1c(/C=C/[C@H](O)C[C@H](O)CC(=O)O)c(-c2ccc(F)cc2)c2ccccc21 (racemic) [Fluvastatin] | > 90 | –
24 | CCN(CC)CCOC[C@H]1O[C@@H](O)[C@H](OCCN(CC)CC)[C@@H](O)[C@@H]1O [Diethylaminoethyl-sephacel] | > 50 | –
25 | N#Cc1ccc(C(=O)O)cc1 [4-Cyanobenzoic acid] | > 90 | –
26 | O=C(Nc1ccccc1)c1cc([N+](=O)[O-])ccc1Cl [2-Chloro-5-nitro-N-phenylbenzamide] | 49.9 | –

Row | SMILES | CC50 at 24 h (AC50 (uM) modified / 1000) [µM] | other results
27 | c1ccc2[nH]nnc2c1 [1,2,3-Benzotriazole] | > 90 | –
28 | CCSCC [Diethyl sulfide] | > 100 | –
29 | CC(C)COC(=O)/C=C/c1ccccc1 [Isobutyl 3-phenylacrylate] | > 90 | –
30 | CCCCCCCCCCCC[n+]1ccc2ccccc2c1 [2-Dodecylisoquinolinium tosylate] | 5.61 | –
31 | CCCCCCCCCC(C)=O [2-Undecanone] | > 90 | –
32 | CCCCOC(=O)CC(CC(=O)OCCCC)(OC(C)=O)C(=O)OCCCC [Acetyl tributyl citrate] | > 90 | –
33 | CCCCO [1-Butanol] | > 90 | –
34 | Clc1sc(Cl)c(Cl)c1Cl [Tetrachlorothiophene] | > 90 | –
35 | CCN1CC(CCN2CCOCC2)C(c2ccccc2)(c2ccccc2)C1=O (stereo not shown) [Doxapram hydrochloride] | > 50 | –
36 | N[C@@H]1CON=C1O [Cycloserine] | > 50 | –
37 | CC(O)CN(CC(C)O)CC(C)O (stereo not shown) [Triisopropanolamine] | – | CC50 at 24 h (AC50 (uM) modified / 1000, Tox21_110001=Tox21_201952, viability, 1 nM T3 present, 24 h): > 90 µM
38 | CCC(Br)(CC)C(=O)NC(N)=O [Carbromal] | – | CC50 at 24 h (AC50 (uM) modified / 1000, Tox21_110001=Tox21_302247, viability, 1 nM T3 present, 24 h): > 90 µM
39 | CC(Cc1cccc(C(F)(F)F)c1)NCCOC(=O)c1ccccc1 (stereo not shown) [Benfluorex hydrochloride] | 27.3 | –
40 | O=NN1CCCCCCC1 [Nitrosoheptamethyleneimine] | > 90 | –
41 | CCOC(=O)CC(=O)c1ccccc1 [Ethyl benzoylacetate] | > 90 | –
42 | c1ccc(Sc2ccccc2)cc1 [Diphenyl sulfide] | > 90 | –
43 | CCc1ccc2c(c1)C(=O)c1ccccc1C2=O [2-Ethylanthraquinone] | > 90 | –
44 | O=C(/C=C/c1ccccc1)OCCCc1ccccc1 [3-Phenylpropyl cinnamate] | > 90 | –
45 | COC(=O)C1=CCCN(C)C1 [Arecoline] | – | CC50 at 24 h (AC50 (uM) modified / 1000, Tox21_110001=Tox21_110079, viability, 1 nM T3 present, 24 h): > 50 µM
46 | CCCC(=O)OCC [Ethyl butyrate] | > 90 | –
47 | ClCCOCCCl [Bis(2-chloroethyl) ether] | > 90 | –
48 | O=C1NC2CCCCN2C12CCN(CCCN1c3ccccc3CCc3ccc(Cl)cc31)CC2 (stereo not shown) [Mosapramine] | 5.62 | –
49 | Cc1ccccc1N1C(=O)c2cc(S(N)(=O)=O)c(Cl)cc2NC1C (stereo not shown) [Metolazone] | > 50 | –
50 | Cc1cc(C)c(NC(=O)CN(CC(=O)O)CC(=O)O)c(C)c1Br [Mebrofenin] | > 50 | –
51 | CCN(CC)CCNC(=O)c1cc(S(C)(=O)=O)ccc1OC [Tiapride hydrochloride] | > 20 | –
52 | CC(=O)CCc1ccc(O)cc1 [4-(4-Hydroxyphenyl)butan-2-one] | > 90 | –

Row | SMILES | CC50 at 24 h (AC50 (uM) modified / 1000) [µM] | other results
53 | COC(C(=O)O)c1ccccc1 (stereo not shown) [Methoxyphenylacetic acid] | > 90 | –
54 | COc1cccc([C@@]2(O)CCCC[C@@H]2CN(C)C)c1 [Tramadol hydrochloride] | > 50 | –
55 | O=C1CC2(CCCC2)CC(=O)N1CCCCN1CCN(c2ncccn2)CC1 [Buspirone] | 89.7 | –
56 | COc1cc(-c2ccc(N=C=O)c(OC)c2)ccc1N=C=O [3,3'-Dimethoxybenzidine-4,4'-diisocyanate] | > 50 | –
57 | CCC(C)(CCCC(C)C)OC(C)=O (stereo not shown) [3,7-Dimethyloctan-3-yl acetate] | > 90 | –
58 | CC(=O)[C@H]1[C@H](C#N)C[C@H]2[C@@H]3CC=C4C[C@@H](O)CC[C@]4(C)[C@H]3CC[C@@]21C [Pregnenolone carbonitrile] | > 60 | –
59 | CCCC(C)C [2-Methylpentane] | > 90 | –
60 | OC[C@H]1O[C@@H](Oc2ccc(O)cc2)[C@H](O)[C@@H](O)[C@@H]1O [Arbutin] | > 90 | –
61 | C[C@]12C=CC(=O)C=C1[C@@H](F)C[C@@H]1[C@@H]2[C@@H](O)C[C@@]2(C)[C@H]1CC[C@]2(O)C(=O)CO [Fluprednisolone] | > 50 | –
62 | CC[C@H](CC[C@@H](C)[C@H]1CC[C@H]2[C@@H]3CC=C4C[C@@H](O)CC[C@]4(C)[C@H]3CC[C@]12C)C(C)C [beta-Sitosterol] | > 50 | –
63 | CC(C)NCC(O)COc1ccccc1-n1cccc1 (stereo not shown) [Isamoltan] | > 50 | –
64 | CN=C=O [Methyl isocyanate] | > 90 | –
65 | CO/N=C(\C(=O)N[C@@H]1C(=O)N2C(C(=O)O)=C(Cn3ccc(=N)n3CCO)CS[C@H]12)c1csc(N)n1 [Cefoselis sulfate] | > 50 | –
66 | O=C(CCCN1CCN(c2ccccn2)CC1)c1ccc(F)cc1 [Azaperone] | > 50 | –
67 | C=CC(=O)NCNC(=O)C=C [N,N'-Methylenebisacrylamide] | > 90 | –
68 | C=C(C)C(=O)OCCCCCCOC(=O)C(=C)C [1,6-Hexanediol dimethacrylate] | > 90 | –
69 | Nc1c(Br)cc(Br)cc1CN[C@H]1CC[C@H](O)CC1 [Ambroxolhydrochloride] | > 50 | –
70 | O=C1c2ccccc2CCc2ccccc21 [Dibenzosuberone] | > 90 | –
71 | Cn1c(-c2ccccc2)cc(-c2ccccc2)[n+]1C [Difenzoquat metilsulfate] | – | CC50 at 24 h (AC50 (uM) modified / 1000, Tox21_110001=Tox21_201486, viability, 1 nM T3 present, 24 h): > 90 µM
72 | CC(C)C(C)C [2,3-Dimethylbutane] | > 90 | –
73 | CCOC(=O)NCCOc1ccc(Oc2ccccc2)cc1 [Fenoxycarb] | > 90 | –
74 | ClC(Cl)C(Cl)(Cl)Cl [Pentachloroethane] | – | CC50 at 24 h (AC50 (uM) modified / 1000, Tox21_110001=Tox21_201141, viability, 1 nM T3 present, 24 h): > 90 µM
75 | CCN=C1C=CC(=C(c2ccc(N(CC)CC)cc2)c2ccc(N(CC)CC)cc2)c2ccccc21 [Basic Blue 7] | 0.714 | –
76 | CN1CCC[C@H]1c1cccnc1 [Nicotine] | > 90 | –
